Like-named read-outs stand apart in the source and are kept apart here.
What was measured:
Drosophila OR10a = target: T1, Drosophila OR10a (Drosophila melanogaster, UniProt Q9VYZ1); test: Calcium ion fluorescence (GCaMP6) assay, OR10a stable HEK293 cell line; format: cell-based; settings: for DF norm AVERAGE OR10a: threshold 0.05, below shown as 0
T1 construct: expressed in transfected cells
T1 sequence (Q9VYZ1 1-406): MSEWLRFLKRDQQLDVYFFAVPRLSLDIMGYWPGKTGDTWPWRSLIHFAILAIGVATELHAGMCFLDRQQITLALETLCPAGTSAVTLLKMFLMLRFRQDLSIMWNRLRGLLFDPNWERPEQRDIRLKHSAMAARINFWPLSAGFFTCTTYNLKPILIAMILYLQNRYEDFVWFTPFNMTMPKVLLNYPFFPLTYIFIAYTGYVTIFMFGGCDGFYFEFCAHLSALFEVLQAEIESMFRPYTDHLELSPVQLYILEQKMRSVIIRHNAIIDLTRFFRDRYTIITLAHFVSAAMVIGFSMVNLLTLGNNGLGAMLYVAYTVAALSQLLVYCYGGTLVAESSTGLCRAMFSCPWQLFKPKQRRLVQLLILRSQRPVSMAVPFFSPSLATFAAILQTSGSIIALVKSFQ
T1 sequence (Q9VNB5 1-486 partner): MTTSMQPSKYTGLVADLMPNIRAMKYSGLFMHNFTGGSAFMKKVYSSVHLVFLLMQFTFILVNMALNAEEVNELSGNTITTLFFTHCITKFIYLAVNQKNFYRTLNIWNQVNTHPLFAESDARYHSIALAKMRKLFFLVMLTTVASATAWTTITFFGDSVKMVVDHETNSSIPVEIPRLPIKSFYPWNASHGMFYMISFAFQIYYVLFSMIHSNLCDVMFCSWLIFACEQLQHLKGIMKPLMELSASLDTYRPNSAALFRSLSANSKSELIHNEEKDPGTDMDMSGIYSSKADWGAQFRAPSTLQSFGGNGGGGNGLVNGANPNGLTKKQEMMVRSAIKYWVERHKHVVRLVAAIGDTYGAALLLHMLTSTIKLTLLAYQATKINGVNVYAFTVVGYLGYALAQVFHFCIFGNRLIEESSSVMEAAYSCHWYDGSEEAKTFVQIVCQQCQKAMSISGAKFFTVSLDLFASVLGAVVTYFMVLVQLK
Procedure, shortened: (§1)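 Responses are VUAA1-normalized ΔF: each VOC-evoked calcium signal, (FMAX−F0)/F0 over 30 s after injection, divided by the same line's mean 50 µM VUAA1 response. Cells were doxycycline-induced HEK293 with GCaMP6 and the cognate Drosophila OR, in HEPES buffer pH 7.3; ligands tested 0.01–100 μM.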

Drosophila OR98a = target: T2, Drosophila OR98a (Drosophila melanogaster, UniProt Q9VAZ3); test: Calcium ion fluorescence (GCaMP6) assay, OR98a stable HEK293 cell line; format: cell-based; settings: for Average response: average of biological replicates, fraction of VUAA1 response
T2 construct: expressed in transfected cells
T2 sequence (Q9VAZ3 1-397): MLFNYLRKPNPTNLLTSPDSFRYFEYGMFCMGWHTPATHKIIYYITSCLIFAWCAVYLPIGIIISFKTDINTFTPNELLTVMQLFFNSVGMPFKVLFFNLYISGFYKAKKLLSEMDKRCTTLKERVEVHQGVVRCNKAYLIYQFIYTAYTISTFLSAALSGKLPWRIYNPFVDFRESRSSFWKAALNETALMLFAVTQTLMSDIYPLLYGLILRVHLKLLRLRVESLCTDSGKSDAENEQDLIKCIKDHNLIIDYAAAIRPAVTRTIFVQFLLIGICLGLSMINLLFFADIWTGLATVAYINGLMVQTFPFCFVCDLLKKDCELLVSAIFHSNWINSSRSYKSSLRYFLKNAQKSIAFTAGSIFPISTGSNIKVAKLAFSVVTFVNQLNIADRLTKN
T2 sequence (Q9VNB5 1-486 partner): T1 sequence (Q9VNB5 1-486 partner)
Procedure, shortened: as §1

[1] = HEK293, read-out: Average response
[2] = HEK293, read-out: OR98a response (VUAA1-normalized response)
[3] = ligand concentration 1 (unit not given)
[4] = ligand concentration 10 (unit not given)
[5] = ligand concentration 100 (unit not given)
[6] = ligand concentration 1 (unit not given), threshold 0.05, below shown as 0
[7] = ligand concentration 10 (unit not given), threshold 0.05, below shown as 0
[8] = ligand concentration 100 (unit not given), threshold 0.05, below shown as 0

## CCCCCCCO [1-heptanol]
Drosophila OR10a; HEK293, 1 μM VOC, 50 μM VUAA1 = 1, responses not exceeding 0.05 considered 0, read-out: OR10a Average response (VUAA1-normalized)
  activation at 1 µM: 1.56%
Drosophila OR10a; HEK293, 10 μM VOC, 50 μM VUAA1 = 1, responses not exceeding 0.05 considered 0, read-out: OR10a Average response (VUAA1-normalized)
  activation at 10 µM: 6.57%
Drosophila OR10a; HEK293, 100 μM VOC, 50 μM VUAA1 = 1, responses not exceeding 0.05 considered 0, read-out: OR10a Average response (VUAA1-normalized)
  activation at 100 µM: 0%
Drosophila OR10a; HEK293, read-out: OR10a response (VUAA1-normalized response), VOC concentration 1 μM
  activation at 1 µM: 0%
Drosophila OR10a; HEK293, read-out: OR10a response (VUAA1-normalized response), VOC concentration 10 μM
  activation at 10 µM: 6.57%
Drosophila OR10a; HEK293, read-out: OR10a response (VUAA1-normalized response), VOC concentration 100 μM
  activation at 100 µM: 0%
Drosophila OR98a; [1]
  activation at 1 µM: 4%
  activation at 10 µM: 5%
  activation at 100 µM: 0%
Drosophila OR98a; [2]
  activation at 1 µM: 0%
  activation at 10 µM: 5%
  activation at 100 µM: 0%
Drosophila OR98a; concentration 1, normalized fluorescence change, values below 0.05 threshold given as 0
  DF norm AVERAGE OR98a: 0
Drosophila OR98a; concentration 10, normalized fluorescence change, values below 0.05 threshold given as 0
  DF norm AVERAGE OR98a: 0.05219
Drosophila OR98a; concentration 100, normalized fluorescence change, values below 0.05 threshold given as 0
  DF norm AVERAGE OR98a: 0

## C=C(C)[C@H]1CC=C(C)CC1 [limonene]
Drosophila OR10a; 1 μM VOC, 50 μM VUAA1 = 1, responses not exceeding 0.05 considered 0
  OR10a Average response (VUAA1-normalized): 0.00
Drosophila OR10a; 10 μM VOC, 50 μM VUAA1 = 1, responses not exceeding 0.05 considered 0
  OR10a Average response (VUAA1-normalized): 0.00
Drosophila OR10a; 100 μM VOC, 50 μM VUAA1 = 1, responses not exceeding 0.05 considered 0
  OR10a Average response (VUAA1-normalized): 0.06
Drosophila OR10a; VOC concentration 1 μM
  OR10a response (VUAA1-normalized response): 0.00
Drosophila OR10a; VOC concentration 10 μM
  OR10a response (VUAA1-normalized response): 0.00
Drosophila OR10a; VOC concentration 100 μM
  OR10a response (VUAA1-normalized response): 0.06
Drosophila OR10a; [3]
  DF norm AVERAGE OR10a: 0
Drosophila OR10a; [4]
  DF norm AVERAGE OR10a: 0
Drosophila OR10a; [5]
  DF norm AVERAGE OR10a: 0.05729
Drosophila OR98a; VOC concentration 1 μM
  OR98a response (VUAA1-normalized response): 0.00
Drosophila OR98a; VOC concentration 10 μM
  OR98a response (VUAA1-normalized response): 0.00
Drosophila OR98a; VOC concentration 100 μM
  OR98a response (VUAA1-normalized response): 0.00
Drosophila OR98a; cc. 1 µM, OR98a cell line
  Average response: 0.00
Drosophila OR98a; cc. 10 µM, OR98a cell line
  Average response: 0.02
Drosophila OR98a; cc. 100 µM, OR98a cell line
  Average response: 0.0268
Drosophila OR98a; [6]
  DF norm AVERAGE OR98a: 0
Drosophila OR98a; [7]
  DF norm AVERAGE OR98a: 0
Drosophila OR98a; [8]
  DF norm AVERAGE OR98a: 0

## Cc1ccc(C(C)C)cc1 [p-cymene]
Drosophila OR10a; HEK293, read-out: OR10a Average response (VUAA1-normalized), 1 μM VOC, 50 μM VUAA1 = 1, responses not exceeding 0.05 considered 0
  activation at 1 µM: 0%
Drosophila OR10a; HEK293, read-out: OR10a Average response (VUAA1-normalized), 10 μM VOC, 50 μM VUAA1 = 1, responses not exceeding 0.05 considered 0
  activation at 10 µM: 0%
Drosophila OR10a; HEK293, read-out: OR10a Average response (VUAA1-normalized), 100 μM VOC, 50 μM VUAA1 = 1, responses not exceeding 0.05 considered 0
  activation at 100 µM: 0%
Drosophila OR10a; OR10a cell line, VOC concentration 1 μM
  OR10a response (VUAA1-normalized) at 1 μM: 0.00
Drosophila OR10a; OR10a cell line, VOC concentration 10 μM
  OR10a response (VUAA1-normalized) at 10 μM: 0.00
Drosophila OR10a; OR10a cell line, VOC concentration 100 μM
  OR10a response (VUAA1-normalized) at 100 μM: 0.00
Drosophila OR10a; [3]
  DF norm AVERAGE OR10a: 0
Drosophila OR10a; [4]
  DF norm AVERAGE OR10a: 0
Drosophila OR10a; [5]
  DF norm AVERAGE OR10a: 0
Drosophila OR98a; [1]
  activation at 1 µM: 0%
  activation at 10 µM: 4%
  activation at 100 µM: 3.65%
Drosophila OR98a; OR98a cell line, VOC concentration 1 μM
  OR98a response (VUAA1-normalized) at 1 μM: 0.00
Drosophila OR98a; OR98a cell line, VOC concentration 10 μM
  OR98a response (VUAA1-normalized) at 10 μM: 0.00
Drosophila OR98a; OR98a cell line, VOC concentration 100 μM
  OR98a response (VUAA1-normalized) at 100 μM: 0.00
Drosophila OR98a; [6]
  DF norm AVERAGE OR98a: 0
Drosophila OR98a; [7]
  DF norm AVERAGE OR98a: 0
Drosophila OR98a; [8]
  DF norm AVERAGE OR98a: 0
